The term IC50 denotes the point on the concentration scale where inhibition reaches its midpoint.

Like-named read-outs stand apart in the source and are kept apart here.

Assay [1] relates to SOC (store operated calcium channel). The experiment in a line: Measurement of SOC IC50 (thapsigargin store depletion, calcium re-addition, CHO cells). To be noted: Cricetulus griseus, CHO, read-out: SOC IC50. Format: cell-based. The procedure:
The SOC (store operated calcium channel)-suppressive action can be measured by the method described in the Example and using, for example, FDSS 3000.
CHO cell culture medium was replaced with a BSS solution which is an extracellular fluidfree of calcium, the compound of the present invention was added 1 min later, and 1 μM thapsigargin was allowed to act thereon 2 min later to deplete intracellular calcium store. […]

The test system of assay [2] is Truncated N-terminal huntington 150 Q-EGFP-Neuron 2a cells. Put plainly: Measurement of x-Fold (polyglutamine aggregation inhibitory activity). It is filed as cell-based. How it is done:
In the present invention, the polyglutamine aggregation inhibitory activity (x-Fold) can be measured, for example, by the method described in the Example.
The number of the aggregated cells, and the total number of cells were counted by Array Scan V T1 (manufactured by Cellomics, Pittuburg, USA), and the ratio of the aggregated cells to the total number of cells was determined (x-Fold). […]

The test system of assay [3] is transglutaminase (TGase). The experiment in a line: Measurement of TG (TGase inhibitory activity, monodansyl cadaverine / N,N-dimethylcasein fluorescence, FDSS 3000). Format: biochemical. Summed up:
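Compound (1 μL of 10 mM stock) added to 0.1 mL reaction: 100 mM HEPES-NaOH pH 7.5, 1 mM CaCl2, 20 μM monodansyl cadaverine, 0.05 mg/mL N,N-dimethylcasein, 5 μg/mL TGase. Rate of fluorescence change at 340 nm measured; DMSO control set to 100; TG50 is the concentration halving activity.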

[4] abbreviates: CHO cells, 1 μM thapsigargin, 2 mM calcium chloride.
[5] abbreviates: polyglutamine aggregation inhibitory activity, Table 1.
Setting [6] is: ratio of aggregated cells to total number of cells, compound 20 μM, 20 hr, almost 1 without compound, smaller = stronger inhibition.
Where [7] appears, read: polyglutamine aggregation, Truncated N-terminal huntington 150 Q-EGFP-Neuron 2a cells.
Setting [8] is: TGase activity with compound (10 mM, 1 μL in 0.1 ml enzyme reaction solution), DMSO control taken as 100.
Setting [9] is: TGase inhibitory activity measurement, unit not given.
The mark [10] stands for this setting: TGase inhibitory activity value, Table 1.

As for `Cc1ccc(B(OCc2ccccn2)c2ccc(C)c(Cl)c2)cc1Cl` [Example 215], the IC50 in assay [1] (setting [4]) and in assay [1] (Table 1) was 2 µM in each case. The x-Fold in assay [2] (setting [5]) and in assay [2] (setting [6]) was 1.03 each time.

With `OB(c1ccccc1)c1ccc(COc2ccc(B(O)c3ccccc3)cc2)cc1` [Example 370, (4-phenylhydroxyborylphenyl)(4′-phenylhydroxyborylbenzyl)ether], the IC50 in assay [1] (setting [4]) and in assay [1] (Table 1) was 2 µM in each case. Further, the x-Fold in assay [2] (setting [5]) and in assay [2] (setting [6]) was 0.76 throughout.

`OB(c1ccc(COc2ccc(B(O)c3ccc(C(F)(F)F)cc3)cc2)cc1)c1ccc(C(F)(F)F)cc1` [Example 372, (4-trifluoromethylphenylhydroxyborylphenyl)(4′-trifluoromethylphenylhydroxyborylbenzyl)ether]: the IC50 in assay [1] (setting [4]) and in assay [1] (Table 1) was 1 µM each time. For the same compound, the x-Fold in assay [2] (setting [5]) and in assay [2] (setting [6]) was 0.86 each time.

In the case of `NCCOB(c1ccc(COc2ccc(B(OCCN)c3ccc(C(F)(F)F)cc3)cc2)cc1)c1ccc(C(F)(F)F)cc1` [Example 373, (4-trifluoromethylphenylaminoethoxyborylphenyl)(4′-trifluoromethylphenylaminoethoxyborylbenzyl)ether], the IC50 in assay [1] (setting [4]) and in assay [1] (Table 1) was 2 µM throughout. Also, the x-Fold in assay [2] (setting [5]) and in assay [2] (setting [6]) was 0.84 throughout.

Regarding `CN(C)CCOB(c1ccccc1)c1cccc(COCc2cccc(B(OCCN(C)C)c3ccccc3)c2)c1` [Example 403, bis(3,3′-(phenyl-N,N-dimethylaminoethoxyboryl)benzyl)ether], the IC50 in assay [1] (setting [4]) is 2 µM; in assay [1] (CHO cells, thapsigargin store depletion), 2 µM. The x-Fold is recorded as 1.14 in assay [2] (polyglutamine aggregation, Truncated N-terminal huntington 150 Q-EGFP-Neuron 2a cells, listed as 2022) and 1.14 in assay [2] (setting [6]).

`Cc1ccc(B(OCCN2CCCCC2)c2ccc(Oc3ccc(B(OCCN4CCCCC4)c4ccc(C)cc4)cc3)cc2)cc1` [Example 447, bis(4,4′-(tolylpiperadylethoxyboryl)phenyl)ether]: the x-Fold in assay [2] (setting [7]) and in assay [2] (setting [6]) was 0.49 throughout. For the same compound, the “TGase activity remaining (% of DMSO control = 100)” value in assay [3] (setting [8]) and in assay [3] (setting [9]) was 97 in each case.

In the case of `Cc1ccc(B(OC(=O)C(N)CC(N)=O)c2ccc(COCc3ccc(B(OC(=O)C(N)CC(N)=O)c4ccc(C)cc4)cc3)cc2)cc1` (centres unmarked) [Example 449, bis(4,4′-(tolylasparagineboryl)benzyl)ether], the x-Fold in assay [2] (setting [7]) and in assay [2] (setting [6]) was 0.89 throughout. Also, the “TGase activity remaining (% of DMSO control = 100)” value in assay [3] (setting [8]) and in assay [3] (setting [9]) was 92 in each case.

For `Cc1ccc(B(OC(=O)C(N)CCCCN)c2ccc(Oc3ccc(B(OC(=O)C(N)CCCCN)c4ccc(C)cc4)cc3)cc2)cc1` (centres unmarked) [Example 450, bis(4,4′-(tolyllysineboryl)phenyl)ether], the x-Fold in assay [2] (setting [7]) and in assay [2] (setting [6]) was 0.49 throughout. Besides, the “TGase activity remaining (% of DMSO control = 100)” value in assay [3] (setting [8]) and in assay [3] (setting [9]) was 53 each time.

Turning to `NCCC(N)C(=O)OB(c1ccccc1)c1ccc(COCc2ccc(B(OC(=O)C(N)CCN)c3ccccc3)cc2)cc1` (centres unmarked) [Example 453, bis(4,4′-(phenyl-2,4-diaminobutyrateboryl)benzyl)ether], the x-Fold in assay [2] (setting [7]) and in assay [2] (setting [6]) was 1.04 each time. The “TGase activity remaining (% of DMSO control = 100)” value in assay [3] (setting [8]) and in assay [3] (setting [9]) was 113 each time.

On to `c1ccc(B(OCCN2CCCCC2)c2ccc(COCc3ccc(B(OCCN4CCCCC4)c4ccccc4)cc3)cc2)cc1` [Example 459, bis(4,4′-(phenyl-1-piperidylethoxyboryl)benzyl)ether], for which the x-Fold in assay [2] (setting [7]) and in assay [2] (setting [6]) was 1.03 in each case. The “TGase activity remaining (% of DMSO control = 100)” value in assay [3] (setting [8]) and in assay [3] (setting [9]) was 80 in each case.

On to `c1ccc(B(OCCN2CCCCC2)c2cccc(COCc3cccc(B(OCCN4CCCCC4)c4ccccc4)c3)c2)cc1` [Example 466, bis(3,3′-(phenyl-1-piperidylethoxyboryl)benzyl)ether], for which the x-Fold in assay [2] (setting [7]) and in assay [2] (setting [6]) was 1.04 in each case. The “TGase activity remaining (% of DMSO control = 100)” value in assay [3] (setting [8]) and in assay [3] (setting [9]) was 71 each time.

On to `Cc1ccc2cccc(OB(c3ccccc3)c3ccc(Oc4ccc(B(Oc5cccc6ccc(C)nc56)c5ccccc5)cc4)cc3)c2n1` [Example 477, bis(4,4′-(phenyl-2-methyl-8-quinolinooxyboryl)phenyl)ether], for which the x-Fold in assay [2] (setting [7]) and in assay [2] (setting [6]) was 1.02 throughout. The “TGase activity remaining (% of DMSO control = 100)” value in assay [3] (setting [8]) and in assay [3] (setting [9]) was 97 throughout.

As for `c1ccc(B(OCC2CCCN2)c2ccc3sc4ccc(B(OCC5CCCN5)c5ccccc5)cc4c3c2)cc1` (centres unmarked) [Example 483, 2,8-di(phenyl 2-pyrrolidinomethoxyboryl)dibenzothiophene], the x-Fold in assay [2] (setting [7]) and in assay [2] (setting [6]) was 0.73 each time. For the same compound, the “TGase activity remaining (% of DMSO control = 100)” value in assay [3] (setting [8]) and in assay [3] (setting [9]) was 107 throughout.

On to `NCCOB(c1ccsc1)c1ccc2sc3ccc(B(OCCN)c4ccsc4)cc3c2c1` [Example 485, 2,8-di(3-thiophenylaminoethoxyboryl)dibenzothiophene], for which the x-Fold in assay [2] (setting [7]) and in assay [2] (setting [6]) was 0.98 throughout. Also, the “TGase activity remaining (% of DMSO control = 100)” value in assay [3] (setting [8]) and in assay [3] (setting [9]) was 76 in each case.

On to `CCCCB(CCCC)OC(=O)C(N)Cc1ccccc1` (centres unmarked) [Example 493, dibutyl(phenylalanine-O,N)borane], for which the x-Fold in assay [2] (setting [7]) and in assay [2] (setting [6]) was 1.03 in each case. Also, the “TGase activity remaining (% of DMSO control = 100)” value in assay [3] (setting [8]) and in assay [3] (setting [9]) was 106 throughout.

In the case of `OB(c1ccccc1)c1cccc(B(O)c2ccccc2)c1` [compound 554], the IC50 in assay [1] (Table 1) is more than 20 µM.

With `NC(CCC(=O)O)C(=O)OB(c1ccccc1)c1ccc(Oc2ccc(B(OC(=O)C(N)CCC(=O)O)c3ccc(CO)cc3)cc2)cc1` (centres unmarked) [compound 1036], the IC50 in assay [1] (Table 1) worked out at 0.3 µM.

Take `Cc1ccc(B(OC(=O)C(N)CC(N)=O)c2ccc(C)c(Cl)c2)cc1Cl` (centres unmarked) [compound 4103]: in assay [1] (Table 1), the IC50 was found to be 0.3 µM.

As for “FITC aminoethylaminoethyl diphenylborinate [Example 161]”, the x-Fold in assay [2] (setting [5]) and in assay [2] (setting [6]) was 0.99 each time. Moreover, the “TGase activity remaining (% of DMSO control = 100)” value in assay [3] (setting [8]) and in assay [3] (setting [10]) was 6 throughout.

As to “bis((4,4′-phenyl methylaminoethoxyboryl)benzyloxybenzyl)methylaminoethoxyborane [Example 190]”, the x-Fold in assay [2] (setting [5]) and in assay [2] (setting [6]) was 1.05 throughout. The “TGase activity remaining (% of DMSO control = 100)” value in assay [3] (setting [8]) and in assay [3] (setting [10]) was 99 each time.

Regarding “bis((4,4′-phenyldimethylaminoethoxyboryl)benzyloxybenzyl)dimethylamino-ethoxyborane [Example 191]”, the x-Fold in assay [2] (setting [5]) and in assay [2] (setting [6]) was 1.04 each time. The “TGase activity remaining (% of DMSO control = 100)” value in assay [3] (setting [8]) and in assay [3] (setting [10]) was 85 throughout.

Turning to “di(3-chloro-4-methylphenyl)(2,6-diaminopimelinate-O,N)borane [Example 286]”, the x-Fold in assay [2] (setting [5]) and in assay [2] (setting [6]) was 0.93 in each case. For the same compound, the “TGase activity remaining (% of DMSO control = 100)” value in assay [3] (setting [8]) and in assay [3] (setting [10]) was 104 throughout.

Regarding “di(3-chloro-6-methyl-phenyl)(argininate-O,N)borane [Example 156]”, the x-Fold in assay [2] (setting [5]) and in assay [2] (setting [6]) was 1.08 each time. Further, the “TGase activity remaining (% of DMSO control = 100)” value in assay [3] (setting [8]) and in assay [3] (setting [10]) was 91 each time.

Regarding “diphenyl(FITC-2,6-diaminocapronate-O,N)borane [Example 177]”, the x-Fold in assay [2] (setting [5]) and in assay [2] (setting [6]) was 1.00 throughout. Further, the “TGase activity remaining (% of DMSO control = 100)” value in assay [3] (setting [8]) and in assay [3] (setting [10]) was 28 throughout.

Consider “diphenyl(tryptophanate-O,N)borane [Example 260]”, for which the x-Fold in assay [2] (setting [5]) and in assay [2] (setting [6]) was 0.89 throughout. Besides, the “TGase activity remaining (% of DMSO control = 100)” value in assay [3] (setting [8]) and in assay [3] (setting [10]) was 106 throughout.

Consider “tetramethylrhodamine aminoethylaminoethyl diphenylborinate [Example 162]”, for which the x-Fold in assay [2] (setting [5]) and in assay [2] (setting [6]) was 0.85 throughout. Further, the “TGase activity remaining (% of DMSO control = 100)” value in assay [3] (setting [8]) and in assay [3] (setting [10]) was −2 each time.

(Values after US8853424B2 (Japan Science and Technology Agency, priority 2008, dated 2014).)
